{"source": "ChEMBL document CHEMBL3286094", "about": "“Synthesis and biological evaluation of novel bisbenzimidazoles as Escherichia coli topoisomerase IA inhibitors and potential antibacterial agents” (J Med Chem, 2014)", "key": {"[1]": {"tested_on": "Escherichia coli", "assay": "Antibacterial activity against ampicillin/ciprofloxacin/gentamicin/tetracycline-resistant Escherichia coli 555 assessed as growth inhibition after 18 to 24 hrs by broth microdilution method", "assay_type": "functional"}, "[2]": {"tested_on": "Escherichia coli", "assay": "Bactericidal activity against ciprofloxacin-resistant Escherichia coli 72 by agar plating method", "assay_type": "functional"}, "[3]": {"tested_on": "Escherichia coli", "assay": "Bactericidal activity against ampicillin/trimethoprim/nalidixic acid-resistant Escherichia coli 118 by agar plating method", "assay_type": "functional"}, "[4]": {"tested_on": "Escherichia coli", "assay": "Bactericidal activity against ampicillin/tetracycline/gentamicin-resistant Escherichia coli 451 by agar plating method", "assay_type": "functional"}, "[5]": {"tested_on": "Escherichia coli", "assay": "Bactericidal activity against chloramphenicol/ampicillin/trimethoprim/ciprofloxacin/nalidixic acid-resistant Escherichia coli 59 by agar plating method", "assay_type": "functional"}, "[6]": {"tested_on": "Escherichia coli", "assay": "Bactericidal activity against ampicillin/kanamycin/trimethoprim/tetracyclin/ciprofloxacin/nalidixic acid-resistant Escherichia coli 81 by agar plating method", "assay_type": "functional"}, "[7]": {"tested_on": "Escherichia coli", "assay": "Bactericidal activity against chloramphenicol/ampicillin/kanamycin/trimethoprim/ciprofloxacin/nalidixic acid-resistant Escherichia coli 132 by agar plating method", "assay_type": "functional"}, "[8]": {"tested_on": "Escherichia coli", "assay": "Bactericidal activity against chloramphenicol/ampicillin/kanamycin/trimethoprim/ciprofloxacin/nalidixic acid-resistant Escherichia coli 151 by agar plating method", "assay_type": "functional"}, "[9]": {"tested_on": "Escherichia coli", "assay": "Bactericidal activity against ampicillin/chloramphenicol/ciprofloxacin/gentamicin/tetracycline-resistant Escherichia coli 401 by agar plating method", "assay_type": "functional"}, "[10]": {"tested_on": "Escherichia coli", "assay": "Bactericidal activity against ampicillin/ciprofloxacin/gentamicin/tetracycline-resistant Escherichia coli 555 by agar plating method", "assay_type": "functional"}, "[11]": {"tested_on": "Escherichia coli", "assay": "Inhibition of Escherichia coli DNA gyrase using relaxed pHOT1 plasmid DNA as substrate assessed as inhibition of DNA supercoiling up to 100 uM after 30 mins by agarose gel electrophoresis"}, "[12]": {"species": "Homo sapiens", "assay": "Inhibition of human DNA topoisomerase-1B using supercoiled pHOT1 plasmid DNA as substrate assessed as inhibition of DNA relaxation at 100 uM after 30 mins by agarose gel electrophoresis"}, "[13]": {"tested_on": "Escherichia coli", "assay": "Antibacterial activity against Escherichia coli ATCC 25922 assessed as growth inhibition after 18 to 24 hrs by broth microdilution method", "assay_type": "functional"}, "[14]": {"tested_on": "Escherichia coli", "assay": "Bactericidal activity against Escherichia coli DH5[alpha] by agar plating method", "assay_type": "functional"}, "[15]": {"tested_on": "Escherichia coli", "assay": "Bactericidal activity against Escherichia coli ATCC 25922 by agar plating method", "assay_type": "functional"}, "[16]": {"tested_on": "Escherichia coli", "assay": "Antibacterial activity against ampicillin/trimethoprim/nalidixic acid-resistant Escherichia coli 118 assessed as growth inhibition after 18 to 24 hrs by broth microdilution method", "assay_type": "functional"}, "[17]": {"tested_on": "Escherichia coli", "assay": "Antibacterial activity against chloroamphenicol/ampicillin/kanamycin/trimethoprim/ciprofloxacin/nalidixic acid-resistant Escherichia coli 85 assessed as growth inhibition after 18 to 24 hrs by broth microdilution method", "assay_type": "functional"}, "[18]": {"tested_on": "Escherichia coli", "assay": "Antibacterial activity against gentamicin/kanamycin/tetracycline/nalidixic acid-resistant Escherichia coli 360 assessed as growth inhibition after 18 to 24 hrs by broth microdilution method", "assay_type": "functional"}, "[19]": {"tested_on": "Escherichia coli", "assay": "Antibacterial activity against ampicillin/tetracycline/gentamicin-resistant Escherichia coli 451 assessed as growth inhibition after 18 to 24 hrs by broth microdilution method", "assay_type": "functional"}, "[20]": {"tested_on": "Escherichia coli", "assay": "Antibacterial activity against chloramphenicol/ampicillin/trimethoprim/ciprofloxacin/nalidixic acid-resistant Escherichia coli 59 assessed as growth inhibition after 18 to 24 hrs by broth microdilution method", "assay_type": "functional"}, "[21]": {"tested_on": "Escherichia coli", "assay": "Antibacterial activity against chloramphenicol/ampicillin/kanamycin/trimethoprim/ciprofloxacin/nalidixic acid-resistant Escherichia coli 132 assessed as growth inhibition after 18 to 24 hrs by broth microdilution method", "assay_type": "functional"}, "[22]": {"tested_on": "Escherichia coli", "assay": "Antibacterial activity against chloramphenicol/ampicillin/kanamycin/trimethoprim/ciprofloxacin/nalidixic acid-resistant Escherichia coli 151 assessed as growth inhibition after 18 to 24 hrs by broth microdilution method", "assay_type": "functional"}, "[23]": {"tested_on": "Escherichia coli", "assay": "Bactericidal activity against multidrug-resistant Escherichia coli IS 54 isolated from water source by agar plating method", "conditions": "IS 54, Water"}, "[24]": {"tested_on": "Escherichia coli", "assay": "Bactericidal activity against ampicillin/tetracycline-resistant Escherichia coli IP18 isolated from water source by agar plating method"}, "[25]": {"tested_on": "Escherichia coli", "assay": "Bactericidal activity against ampicillin/trimethoprim/piperacillin-resistant Escherichia coli MKNJ isolated from water source by agar plating method"}, "[26]": {"tested_on": "Escherichia coli", "assay": "Bactericidal activity against ampicillin/chloramphenicol/tetracycline/trimethoprim/ciprofloxacin-resistant Escherichia coli KK45 isolated from water source by agar plating method"}, "[27]": {"tested_on": "Escherichia coli", "assay": "Antibacterial activity against multidrug-resistant Escherichia coli IS 54 isolated from water source assessed as growth inhibition after 18 to 24 hrs by broth microdilution method", "conditions": "IS 54, Water"}, "[28]": {"tested_on": "Escherichia coli", "assay": "Antibacterial activity against ampicillin/tetracycline-resistant Escherichia coli IP18 isolated from water source assessed as growth inhibition after 18 to 24 hrs by broth microdilution method"}, "[29]": {"tested_on": "Escherichia coli", "assay": "Antibacterial activity against tetracycline/trimethoprim-resistant Escherichia coli IST isolated from water source assessed as growth inhibition after 18 to 24 hrs by broth microdilution method"}, "[30]": {"tested_on": "Escherichia coli", "assay": "Bactericidal activity against ampicillin/trimethoprim/cefazolinl/piperacillin/cefuroxime/cefoxitine/cefepime/cefotaxime-resistant Escherichia coli KP21 isolated from water source by agar plating method"}, "[31]": {"tested_on": "Escherichia coli", "assay": "Bactericidal activity against cefazolinl/ampicillin/piperacillin/cefuroxime/cefepime/cefotaxime/tetracycline/trimethoprim-resistant Escherichia coli KK16 isolated from water source by agar plating method"}, "[32]": {"tested_on": "Escherichia coli", "assay": "Antibacterial activity against ampicillin/tetracycline/piperacillin-resistant Escherichia coli WB31 isolated from water source assessed as growth inhibition after 18 to 24 hrs by broth microdilution method"}, "[33]": {"tested_on": "Escherichia coli", "assay": "Antibacterial activity against ampicillin/trimethoprim/piperacillin-resistant Escherichia coli MKNJ isolated from water source assessed as growth inhibition after 18 to 24 hrs by broth microdilution method"}, "[34]": {"tested_on": "Escherichia coli", "assay": "Antibacterial activity against ampicillin/chloramphenicol/tetracycline/trimethoprim/ciprofloxacin-resistant Escherichia coli KK45 isolated from water source assessed as growth inhibition after 18 to 24 hrs by broth microdilution method"}, "[35]": {"tested_on": "Escherichia coli", "assay": "Antibacterial activity against ampicillin/trimethoprim/cefazolinl/piperacillin/cefuroxime/cefoxitine/cefepime/cefotaxime-resistant Escherichia coli KP21 isolated from water source assessed as growth inhibition after 18 to 24 hrs by broth microdilution method"}, "[36]": {"tested_on": "Escherichia coli", "assay": "Antibacterial activity against cefazolinl/ampicillin/piperacillin/cefuroxime/cefepime/cefotaxime/tetracycline/ciprofloxacin-resistant Escherichia coli NG3 isolated from water source assessed as growth inhibition after 18 to 24 hrs by broth microdilution method"}}, "note": "Calls of active or inactive are those of the source. No cut-off for these calls is given here.", "data": [{"compound": "COc1ccc(-c2nc3ccc(-c4nc5ccc(N6CCN(c7ccncc7)CC6)cc5[nH]4)cc3[nH]2)cc1OC", "values": [{"measurement": "MIC50", "setting": "[1]", "value": 16, "unit": "µg/mL"}, {"measurement": "MIC90", "setting": "[1]", "value": 58.6, "unit": "µg/mL"}, {"measurement": "MBC", "setting": "[2]", "value": 2, "unit": "µg/mL"}, {"measurement": "MBC", "setting": "[3]", "value": 2, "unit": "µg/mL"}, {"measurement": "MBC", "setting": "[4]", "value": 4, "unit": "µg/mL"}, {"measurement": "MBC", "setting": "[5]", "value": 4, "unit": "µg/mL"}, {"measurement": "MBC", "setting": "[6]", "value": 4, "unit": "µg/mL"}, {"measurement": "MBC", "setting": "[7]", "value": 4, "unit": "µg/mL"}, {"measurement": "MBC", "setting": "[8]", "value": 2, "unit": "µg/mL"}, {"measurement": "MBC", "setting": "[9]", "value": 2, "unit": "µg/mL"}, {"measurement": "MBC", "setting": "[10]", "value": 64, "unit": "µg/mL"}, {"measurement": "inhibition", "setting": "[11]", "value": "inactive"}, {"measurement": "inhibition", "setting": "[12]", "value": "inactive"}, {"measurement": "MIC50", "setting": "[13]", "value": 2, "unit": "µg/mL"}, {"measurement": "MIC90", "setting": "[13]", "value": 3.7, "unit": "µg/mL"}, {"measurement": "MBC", "setting": "[14]", "value": 1, "unit": "µg/mL"}, {"measurement": "MBC", "setting": "[15]", "value": 4, "unit": "µg/mL"}, {"measurement": "MIC50", "setting": "[16]", "value": 1, "unit": "µg/mL"}, {"measurement": "MIC90", "setting": "[16]", "value": 1.7, "unit": "µg/mL"}, {"measurement": "MIC50", "setting": "[17]", "value": 2, "unit": "µg/mL"}, {"measurement": "MIC90", "setting": "[17]", "value": 3.6, "unit": "µg/mL"}, {"measurement": "MIC50", "setting": "[18]", "value": 1, "unit": "µg/mL"}, {"measurement": "MIC90", "setting": "[18]", "value": 1.7, "unit": "µg/mL"}, {"measurement": "MIC50", "setting": "[19]", "value": 2, "unit": "µg/mL"}, {"measurement": "MIC90", "setting": "[19]", "value": 3.6, "unit": "µg/mL"}, {"measurement": "MIC50", "setting": "[20]", "value": 1, "unit": "µg/mL"}, {"measurement": "MIC90", "setting": "[20]", "value": 3.6, "unit": "µg/mL"}, {"measurement": "MIC50", "setting": "[21]", "value": 2, "unit": "µg/mL"}, {"measurement": "MIC90", "setting": "[21]", "value": 3.7, "unit": "µg/mL"}, {"measurement": "MIC50", "setting": "[22]", "value": 1, "unit": "µg/mL"}, {"measurement": "MIC90", "setting": "[22]", "value": 1.7, "unit": "µg/mL"}, {"measurement": "MBC", "setting": "[23]", "value": 2, "unit": "µg/mL"}, {"measurement": "MBC", "setting": "[24]", "value": 4, "unit": "µg/mL"}, {"measurement": "MBC", "setting": "[25]", "value": 4, "unit": "µg/mL"}, {"measurement": "MBC", "setting": "[26]", "value": 4, "unit": "µg/mL"}, {"measurement": "MIC50", "setting": "[27]", "value": 1, "unit": "µg/mL"}, {"measurement": "MIC90", "setting": "[27]", "value": 1.7, "unit": "µg/mL"}, {"measurement": "MIC50", "setting": "[28]", "value": 2, "unit": "µg/mL"}, {"measurement": "MIC90", "setting": "[28]", "value": 3.7, "unit": "µg/mL"}, {"measurement": "MIC50", "setting": "[29]", "value": 0.5, "unit": "µg/mL"}, {"measurement": "MIC90", "setting": "[29]", "value": 0.8, "unit": "µg/mL"}, {"measurement": "MBC", "setting": "[30]", "value": 4, "unit": "µg/mL"}, {"measurement": "MBC", "setting": "[31]", "value": 2, "unit": "µg/mL"}, {"measurement": "MIC50", "setting": "[32]", "value": 2, "unit": "µg/mL"}, {"measurement": "MIC90", "setting": "[32]", "value": 3.7, "unit": "µg/mL"}, {"measurement": "MIC50", "setting": "[33]", "value": 2, "unit": "µg/mL"}, {"measurement": "MIC90", "setting": "[33]", "value": 3.7, "unit": "µg/mL"}, {"measurement": "MIC50", "setting": "[34]", "value": 2, "unit": "µg/mL"}, {"measurement": "MIC90", "setting": "[34]", "value": 3.7, "unit": "µg/mL"}, {"measurement": "MIC50", "setting": "[35]", "value": 2, "unit": "µg/mL"}, {"measurement": "MIC90", "setting": "[35]", "value": 3.6, "unit": "µg/mL"}, {"measurement": "MIC50", "setting": "[36]", "value": 1, "unit": "µg/mL"}, {"measurement": "MIC90", "setting": "[36]", "value": 1.8, "unit": "µg/mL"}]}]}
